Patent publication US20250257111A1, “Supramolecular Complex of a Biomolecule” (Cambridge Enterprise Limited, priority 2022, published 2025)
Values belong to the compound of their own block, whether it stands above or below them. Square brackets hold non-standard residues; d marks the D form. Peptide text beside a SMILES is read from it. 2Nal = N[C@@H](Cc1ccc2ccccc2c1)C(=O)O

Assays:
[1] = test system: 1:1 complex of F′GG-CB[8]; test: ITC: secondary association of tripeptides with the 1:1 complex of F′GG-CB[8]; assay type: binding; settings: for Ka: 10 mM phosphate buffer pH 7.0, 298 K, averaged with three replicates; for secondary association / binding to F′GG-CB[8]: in words
Procedure: (§1) Isothermal titration calorimetry (ITC) was employed to study binding thermodynamics of heteropeptide dimerization (FIG. 2c and additional data not shown). Titration of F′GG (3.0 mM) into CB[8](0.1 mM) led to a stepwise binding curve with two transitions at molar ratios of 1.0 and 2.0 (FIG. 2c). The first-step binding constant (K1) is 6.6×10^5 M^−1, while the second-step (K2) is 9.4×10^3 M^−1. This indicates negative cooperativity where K1>K2^18,19,23 Such favourable 1:1 complexation enables secondary access of electron-rich aromatic peptides.
(§2) ITC experiments were operated on a Malvern MicroCal Auto-ITC200 apparatus at 298 K in 10 mM phosphate buffer with pH 7.0. In a of 1 injection of 0.6 μL and 32 consecutive injections of 1.2 μL with 90 s intervals between injections. The first data point was removed before analysis. The ITC data were fitted by MicroCal Analysis Centre software using one set of sites model. In a typical experiment for homoternary complexation, the host molecule (CB[8]) was loaded in the sample cell with a concentration of 0.1 mM, and the guest peptide was loaded in the syringe with a concentration of 2.0 mM. The injection and interval settings were the same as above. The first data point was removed from the data set before analysis. The obtained ITC curves were fitted by MicroCal Analysis Centre software using sequential binding model. All parameters were averaged with three replicates, s.d. n=3.

[2] = UV quantification of insulin on-resin recognition, 8-day storage and on-demand release; assay type: physicochemical
Procedure: UV spectra were obtained on a Cary 4000 Ultravioletvisible Spectrometer. A pair of quartz cuvettes with 2 mm gap was used. Double beam mode with a fixed 2 nm spectral bandwidth and baseline correction were selected. In a typical run, 300 μl of 1 mM solution was transferred to the quartz cuvette and was scanned compared to phosphate buffer in D2O. UV spectra were obtained in the linear absorption range (0.2-0.8) for better quantification.
1 N HCl was immediately added to reach acid concentration of 5 mM. […] In a typical experiment, 8 μmol F′GGGGG equivalent of resin H2O suspension was added to a 12 ml syringe with a polyester frit (r=8.0 mm, h=2.0 mm). After H2Owas drained, 8 ml of 0.1 mM CB[8] solution was added to the resin and the plunge and a stopper were assembled to the syringe to form a sealed chamber. The syringe was transferred onto a wrist-action shaker and shaken for 12 hours. […] Then, the liquid (resin-treated solution) in syringe was drained thoroughly and the resin was washed with H2Oonce. After that, 0.8 ml of 2 mM DMADA solution (in 5 mM of HCl) was added to the resin and shaken gently for an additional 3 hours. The solution (released solution) was drained.
The 8-day storage and release experiment was conducted as follows. 9 syringes were prepared each with 8 μmol F′GGGGG equivalent of resin H2Osuspension. […] All syringes with the resin were kept at room temperature. Starting from day 0 to day 8, on each day, a syringe with resin was added with 0.8 ml of 2 mM DMADA solution (to get released solution, one per day). All yielded solutions were analyzed on UV spectroscopy immediately. Numbers to calculate released percentage in FIG. 4g were absorbance at 276 nm.

[3] = CD secondary structure verification of released insulin; assay type: physicochemical
Procedure: CD measurements were performed on a Chirascan spectrometer (Applied Photophysics). Scans were carried out at 298 K from 200-500 nm at 1.0 nm intervals. The acquisition time was 0.5 second in a 0.1 cm path length quartz cuvette. CD spectra were collected using solutions from the above UV experiments of the 8-day storage and release experiments. […] All solutions were diluted 2× before the measurements. All scans were collected and averaged out over three scans with background noise correction.

[4] = ITC: titration of F′GG into CB[8] (stepwise binding); settings: F′GG (3.0 mM) into CB[8] (0.1 mM)
Procedure: as §1
as §2, with “All parameters were averaged with three replicates, s.d. n=3.” left out

[5] = cited from earlier work

Compound: NCC(=O)N[C@@H](Cc1ccc2ccccc2c1)C(=O)NCC(N)=O [GNpG, (S)—N-(2-amino-2-oxoethyl)-2-(2-aminoacetamido)-3-(naphthalen-2-yl)propanamide] (H-Gly-[2Nal]-Gly-NH2)
Ka [1]: 165 ± 10 10^3M^−1

Compound: NC(=O)CNC(=O)CNC(=O)[C@@H](N)Cc1c[nH]c2ccccc12 [WGG, (S)-2-amino-N-(2-((2-amino-2-oxoethyl)amino)-2-oxoethyl)-3-(1H-indol-3-yl) propanamide] (H-Trp-Gly-Gly-NH2)
Ka [1]: 460 ± 53 10^3M^−1

secondary association / binding to F′GG-CB[8] [1]: no secondary binding
Compound: NCC(=O)NCC(=O)N[C@@H](Cc1ccc(O)cc1)C(N)=O [GGY, (S)-2-(2-(2-aminoacetamido)acetamido)-3-(4-hydroxyphenyl)propanamide] (H-Gly-Gly-Tyr-NH2)

Compound: NC(=O)CNC(=O)CNC(=O)[C@@H](N)Cc1ccc(O)cc1 [YGG] (H-Tyr-Gly-Gly-NH2)
Ka [1]: 3 ± 5 10^3M^−1

Compound: insulin: Insulin (Human Recombinant), purchased; widely-used biopharmaceutical for diabetes treatment
UV absorbance at 276 nm, released ([2]; release on day 0): 0.176 abs | UV absorbance at 276 nm, released ([2]; release on day 2, storage at room temperature): 0.1768 abs | UV absorbance at 276 nm, released ([2]; release on day 5, storage at room temperature): 0.1683 abs | UV absorbance at 276 nm, released ([2]; release on day 8, storage at room temperature): 0.1739 abs | secondary structures of insulin after storage ([3]; after 2, 5, 8 days of storage under room temperature on functionalized resin): intact | CD absorbance at 208 nm, signal (mean of repeats) ([3]; insulin, original): −56.4 θm · deg | CD absorbance at 208 nm, signal (mean of repeats) ([3]; released on day 2): −56.4 θm · deg | CD absorbance at 208 nm, signal (mean of repeats) ([3]; released on day 5): −50.3 θm · deg | CD absorbance at 208 nm, signal (mean of repeats) ([3]; released on day 8): −52.3 θm · deg

Compound: NCC(=O)NCC(=O)N[C@@H](Cc1ccccc1)C(N)=O [GGF, (S)-2-(2-(2-aminoacetamido)acetamido)-3-phenylpropanamide] (H-Gly-Gly-Phe-NH2)
Ka [1]: 22 ± 1 10^3M^−1

Compound: NCC(=O)N[C@@H](Cc1c[nH]c2ccccc12)C(=O)NCC(N)=O [GWG, (S)—N-(2-amino-2-oxoethyl)-2-(2-aminoacetamido)-3-(1H-indol-3-yl)propanamide] (H-Gly-Trp-Gly-NH2)
Ka [1]: 103 ± 6 10^3M^−1

first-step binding constant (K1) [4]: 660000 M⁻¹ | second-step binding constant (K2) [4]: 9400 M⁻¹
Compound: (S)-2-amino-N-(2-((2-amino-2-oxoethyl)amino)-2-oxoethyl)-3-(perfluorophenyl) propenamide [F′GG]

secondary association / binding to F′GG-CB[8] [1]: no secondary association
Compound: NC(=O)CNC(=O)CNC(=O)[C@@H](N)CCC(=O)O [EGG, reference compound] (H-Glu-Gly-Gly-NH2)

Compound: NC(=O)CNC(=O)CNC(=O)[C@@H](N)Cc1ccc2ccccc2c1 [NpGG, (S)-2-amino-N-(2-((2-amino-2-oxoethyl)amino)-2-oxoethyl)-3-(naphthalen-2-yl) propanamide] (H-[2Nal]-Gly-Gly-NH2)
Ka [1]: 382 ± 22 10^3M^−1

Compound: NCC(=O)NCC(=O)N[C@@H](Cc1ccc2ccccc2c1)C(N)=O [GGNp, (S)-2-(2-(2-aminoacetamido)acetamido)-3-(naphthalen-2-yl)propanamide] (H-Gly-Gly-[2Nal]-NH2)
Ka [1]: 90 ± 2 10^3M^−1

Compound: NCC(=O)N[C@@H](Cc1ccc(O)cc1)C(=O)NCC(N)=O [GYG] (H-Gly-Tyr-Gly-NH2)
Ka [1]: 4 ± 0.3 10^3M^−1

Compound: NCC(=O)N[C@@H](Cc1ccccc1)C(=O)NCC(N)=O [GFG, (S)—N-(2-amino-2-oxoethyl)-2-(2-aminoacetamido)-3-phenylpropanamide] (H-Gly-Phe-Gly-NH2)
Ka [1]: 58 ± 3 10^3M^−1

secondary association / binding to F′GG-CB[8] [1]: no secondary association
Compound: NCCCC[C@H](N)C(=O)NCC(=O)NCC(N)=O [KGG, (S)-2,6-diamino-N-(2-((2-amino-2-oxoethyl)amino)-2-oxoethyl)hexanamide, reference compound] (H-Lys-Gly-Gly-NH2)

Compound: NC(=O)CNC(=O)CNC(=O)[C@@H](N)Cc1ccccc1 [FGG, (S)-2-amino-N-(2-((2-amino-2-oxoethyl)amino)-2-oxoethyl)-3-phenylpropanamide] (H-Phe-Gly-Gly-NH2)
Ka [1]: 356 ± 26 10^3M^−1 | binding strength K of homodimer 2FGG-CB[8] [5]: ca. 10^11 M^−2

secondary association / binding to F′GG-CB[8] [1]: no secondary association
Compound: CC(C)C[C@H](N)C(=O)NCC(=O)NCC(N)=O [LGG, reference compound] (H-Leu-Gly-Gly-NH2)
